The text below walks through data of patent publication US7888363B2, “Viral polymerase inhibitors” (Boehringer Ingelheim International GmbH, priority 2003, dated 2011).

Molecules are shown by their SMILES. A value given as a limit tells only on which side of the number the result lay.

The target of the assay is hepatitis C virus RNA dependant polymerase (NS5B) (Hepatitis C virus genotype 1b, UniProt P26663). Description: Inhibition of NS5B RNA dependent RNA polymerase activity. It is filed as biochemical. To be noted: Table 4; class ranges. The method, then: A suitable assay is described in the examples.
Sequence of hepatitis C virus RNA dependant polymerase (NS5B) (P26663 2420-3010): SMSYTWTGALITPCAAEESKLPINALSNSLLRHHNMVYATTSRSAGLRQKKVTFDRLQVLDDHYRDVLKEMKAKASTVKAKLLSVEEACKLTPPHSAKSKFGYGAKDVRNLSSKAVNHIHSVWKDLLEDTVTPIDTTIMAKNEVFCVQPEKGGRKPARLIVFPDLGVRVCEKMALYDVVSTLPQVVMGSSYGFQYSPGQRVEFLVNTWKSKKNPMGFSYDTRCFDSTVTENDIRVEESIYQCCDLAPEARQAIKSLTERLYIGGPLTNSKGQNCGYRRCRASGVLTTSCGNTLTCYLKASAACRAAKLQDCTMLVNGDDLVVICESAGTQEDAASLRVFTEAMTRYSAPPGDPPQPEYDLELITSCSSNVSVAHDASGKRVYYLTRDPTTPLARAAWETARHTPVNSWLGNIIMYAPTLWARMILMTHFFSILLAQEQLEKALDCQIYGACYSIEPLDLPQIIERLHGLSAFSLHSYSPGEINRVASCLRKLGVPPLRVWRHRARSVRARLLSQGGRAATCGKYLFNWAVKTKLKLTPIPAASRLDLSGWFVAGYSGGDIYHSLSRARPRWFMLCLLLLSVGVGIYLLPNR
Inhibition of NS5B RNA Dependent RNA Polymerase Activity
The compounds of the invention were tested for inhibitory activity against the hepatitis C virus RNA dependant polymerase (NS5B), according to protocol described in WO 03/010141
Usually IC50 stands for the point on the concentration scale where inhibition reaches its midpoint. Low readings indicate higher potency, high ones lower potency. `CN1CCN(C(=O)Cn2c(-c3ccccn3)c(C3CCCCC3)c3ccc(C(N)=O)cc32)CC1` [Example 4001] returned an IC50 of 1000 to 10000 nM.
In the case of `COc1ccc(CNC(=O)c2ccc3c(C4CCCCC4)c(-c4ccccn4)n(CC(=O)N4CCN(C)CC4)c3c2)cc1OC` [Example 4002] it was 200 to 1000 nM; in that of `COc1ccc(CNC(=O)c2ccc3c(C4CCCCC4)c(-c4ccoc4)n(CC(=O)N4CCN(C)CC4)c3c2)cc1OC` [Example 4003], < 200 nM.
In the case of `COc1ccc(CNC(=O)c2ccc3c(C4CCCCC4)c(-c4ccoc4)n(CC(=O)N4CCC(N5CCCC5)CC4)c3c2)cc1OC` [Example 4004] it was < 200 nM.
In the case of `C[C@@H](NC(=O)c1ccc2c(C3CCCCC3)c(-c3ccoc3)n(CC(=O)N3CCC(N4CCCC4)CC3)c2c1)c1ccccc1` [Example 4005] it was < 200 nM; in that of `COc1ccc(CNC(=O)c2ccc3c(C4CCCCC4)c(-c4ccoc4)n(CC(=O)N4CCOCC4)c3c2)cc1OC` [Example 4006], < 200 nM; in that of `C[C@@H](NC(=O)c1ccc2c(C3CCCCC3)c(-c3ccoc3)n(CC(=O)N3CCOCC3)c2c1)c1ccccc1` [Example 4007], 200 to 1000 nM.
Turning to `CN1CCN(C(=O)Cn2c(-c3ccoc3)c(C3CCCCC3)c3ccc(C(=O)NC4CCCC4)cc32)CC1` [Example 4008], the IC50 fell in the range of 200 to 1000 nM.
For `CN1CCN(C(=O)Cn2c(-c3ccoc3)c(C3CCCCC3)c3ccc(C(=O)NCCC4CCCN4C)cc32)CC1` (stereo not shown) [Example 4009], the half-inhibitory concentration (IC50) fell in the range of 200 to 1000 nM.
In the case of `CCN1CCCC1CNC(=O)c1ccc2c(C3CCCCC3)c(-c3ccoc3)n(CC(=O)N3CCN(C)CC3)c2c1` (stereo not shown) [Example 4010] it was 200 to 1000 nM.
The figure for `CN1CCN(C(=O)Cn2c(-c3ccoc3)c(C3CCCCC3)c3ccc(C(=O)NCc4ccco4)cc32)CC1` [Example 4011] is 200 to 1000 nM; for `CC(C)C(CO)NC(=O)c1ccc2c(C3CCCCC3)c(-c3ccoc3)n(CC(=O)N3CCN(C)CC3)c2c1` (stereo not shown) [Example 4012] it is 200 to 1000 nM; for `CN1CCN(C(=O)Cn2c(-c3ccoc3)c(C3CCCCC3)c3ccc(C(=O)NCc4ccc5c(c4)OCO5)cc32)CC1` [Example 4013] it is 200 to 1000 nM.
The figure for `CN1CCN(C(=O)Cn2c(-c3ccoc3)c(C3CCCCC3)c3ccc(C(=O)NCCN4CCOCC4)cc32)CC1` [Example 4014] is 200 to 1000 nM; for `CN1CCN(C(=O)Cn2c(-c3ccoc3)c(C3CCCCC3)c3ccc(C(=O)NCc4ccccn4)cc32)CC1` [Example 4015] it is 200 to 1000 nM.
Consider `CN1CCN(C(=O)Cn2c(-c3ccoc3)c(C3CCCCC3)c3ccc(C(=O)NCCc4ccccn4)cc32)CC1` [Example 4016], for which the 50% inhibitory concentration (IC50) fell in the range of 200 to 1000 nM.
The figure for `CN1CCN(C(=O)Cn2c(-c3ccoc3)c(C3CCCCC3)c3ccc(C(=O)NCc4cccnc4)cc32)CC1` [Example 4017] is 200 to 1000 nM; for `CN1CCN(C(=O)Cn2c(-c3ccoc3)c(C3CCCCC3)c3ccc(C(=O)NCc4ccncc4)cc32)CC1` [Example 4018] it is 200 to 1000 nM.
In the case of `CN1CCN(C(=O)Cn2c(-c3ccoc3)c(C3CCCCC3)c3ccc(C(=O)NC(C)(C)CO)cc32)CC1` [Example 4019] it was 200 to 1000 nM; in that of `COCC(C)NC(=O)c1ccc2c(C3CCCCC3)c(-c3ccoc3)n(CC(=O)N3CCN(C)CC3)c2c1` (stereo not shown) [Example 4020], 200 to 1000 nM; in that of `CN1CCN(C(=O)Cn2c(-c3ccoc3)c(C3CCCCC3)c3ccc(C(=O)NCc4ccccc4)cc32)CC1` [Example 4021], 200 to 1000 nM.
In the case of `CN1CCN(C(=O)Cn2c(-c3ccoc3)c(C3CCCCC3)c3ccc(C(=O)NCc4ccc(F)cc4)cc32)CC1` [Example 4022] it was 200 to 1000 nM; in that of `CN1CCN(C(=O)Cn2c(-c3ccoc3)c(C3CCCCC3)c3ccc(C(=O)NCC(O)c4ccccc4)cc32)CC1` (stereo not shown) [Example 4023], 200 to 1000 nM; in that of `CC(CNC(=O)c1ccc2c(C3CCCCC3)c(-c3ccoc3)n(CC(=O)N3CCN(C)CC3)c2c1)c1ccccc1` (stereo not shown) [Example 4024], 1000 to 10000 nM.
In turn, `CN(C)CCNC(=O)c1ccc2c(C3CCCCC3)c(-c3ccoc3)n(CC(=O)N3CCN(C)CC3)c2c1` [Example 4025] showed an IC50 of 200 to 1000 nM.
`CN1CCN(C(=O)Cn2c(-c3ccoc3)c(C3CCCCC3)c3ccc(C(=O)NCCc4ccccc4)cc32)CC1` [Example 4026] displayed a half-inhibitory concentration (IC50) of 1000 to 10000 nM.
In the case of `CN1CCN(C(=O)Cn2c(-c3ccoc3)c(C3CCCCC3)c3ccc(C(=O)NC4(CO)CCCC4)cc32)CC1` [Example 4027] it was 200 to 1000 nM; in that of `CNC(=O)c1ccc2c(C3CCCCC3)c(-c3ccoc3)n(CC(=O)N3CCN(C)CC3)c2c1` [Example 4028], 200 to 1000 nM; in that of `CN1CCN(C(=O)Cn2c(-c3ccoc3)c(C3CCCCC3)c3ccc(C(=O)NCc4ccc(O)c(O)c4)cc32)CC1` [Example 4029], < 200 nM.
In the case of `COc1cc(CNC(=O)c2ccc3c(C4CCCCC4)c(-c4ccoc4)n(CC(=O)N4CCN(C)CC4)c3c2)ccc1O` [Example 4030] it was < 200 nM.
In the case of `CN1CCN(C(=O)Cn2c(-c3ccoc3)c(C3CCCCC3)c3ccc(C(=O)NCC(=O)c4ccccc4)cc32)CC1` [Example 4031] it was 200 to 1000 nM; in that of `CN1CCN(C(=O)Cn2c(-c3ccoc3)c(C3CCCCC3)c3ccc(C(=O)NCc4ccc(S(N)(=O)=O)cc4)cc32)CC1` [Example 4032], < 200 nM.
For the compound `CN1CCN(C(=O)Cn2c(-c3ccoc3)c(C3CCCCC3)c3ccc(C(=O)NC4CCS(=O)(=O)C4)cc32)CC1` (stereo not shown) [Example 4033], the IC50 was 1000 to 10000 nM.
For `CN1CCN(C(=O)Cn2c(-c3ccoc3)c(C3CCCCC3)c3ccc(C(=O)NCC4CC4)cc32)CC1` [Example 4034], the IC50 fell in the range of 200 to 1000 nM.
The figure for `CN1CCN(C(=O)Cn2c(-c3ccoc3)c(C3CCCCC3)c3ccc(C(=O)NCCc4ccncc4)cc32)CC1` [Example 4035] is 200 to 1000 nM.
As to `CN1CCN(C(=O)Cn2c(-c3ccoc3)c(C3CCCCC3)c3ccc(C(=O)NC4CCN(Cc5ccccc5)C4)cc32)CC1` (stereo not shown) [Example 4036], the IC50 was 200 to 1000 nM.
In the case of `CN1CCN(C(=O)Cn2c(-c3ccoc3)c(C3CCCCC3)c3ccc(C(=O)NC(C)(C)Cc4ccccc4)cc32)CC1` [Example 4037] it was 1000 to 10000 nM.
Compound `C[C@@H](NC(=O)c1ccc2c(C3CCCCC3)c(-c3ccoc3)n(CC(=O)N3CCN(C)CC3)c2c1)c1ccccc1` [Example 4039] gave an IC50 of 200 to 1000 nM.
Take `CN1CCN(C(=O)Cn2c(-c3ccoc3)c(C3CCCCC3)c3ccc(C(=O)NCCc4cccnc4)cc32)CC1` [Example 4040]: the IC50 was in the range of 200 to 1000 nM.
For `CN1CCN(C(=O)Cn2c(-c3ccoc3)c(C3CCCCC3)c3ccc(C(=O)NCc4ccc(S(C)(=O)=O)cc4)cc32)CC1` [Example 4041], the IC50 is < 200 nM.
The figure for `COc1cccc([C@@H](C)NC(=O)c2ccc3c(C4CCCCC4)c(-c4ccoc4)n(CC(=O)N4CCN(C)CC4)c3c2)c1` [Example 4042] is < 200 nM; for `COc1ccc([C@@H](C)NC(=O)c2ccc3c(C4CCCCC4)c(-c4ccoc4)n(CC(=O)N4CCN(C)CC4)c3c2)cc1` [Example 4043] it is < 200 nM; for `Cc1cnc(CNC(=O)c2ccc3c(C4CCCCC4)c(-c4ccoc4)n(CC(=O)N4CCN(C)CC4)c3c2)cn1` [Example 4044] it is 200 to 1000 nM.
In the case of `O=C(NCc1ccc2c(c1)OCO2)c1ccc2c(C3CCCCC3)c(-c3ccoc3)n(CC(=O)N3CCOCC3)c2c1` [Example 4045] it was 200 to 1000 nM; in that of `O=C(NCc1ccccn1)c1ccc2c(C3CCCCC3)c(-c3ccoc3)n(CC(=O)N3CCOCC3)c2c1` [Example 4046], 200 to 1000 nM; in that of `O=C(NCc1ccccc1)c1ccc2c(C3CCCCC3)c(-c3ccoc3)n(CC(=O)N3CCOCC3)c2c1` [Example 4047], 200 to 1000 nM.
As for `O=C(NCCc1ccccc1)c1ccc2c(C3CCCCC3)c(-c3ccoc3)n(CC(=O)N3CCOCC3)c2c1` [Example 4048], the IC50 was 1000 to 10000 nM.
In the case of `CNC(=O)c1ccc2c(C3CCCCC3)c(-c3ccoc3)n(CC(=O)N3CCOCC3)c2c1` [Example 4049] it was 200 to 1000 nM; in that of `O=C(NCCc1ccncc1)c1ccc2c(C3CCCCC3)c(-c3ccoc3)n(CC(=O)N3CCOCC3)c2c1` [Example 4050], 200 to 1000 nM.
The figure for `COc1ccc([C@@H](C)NC(=O)c2ccc3c(C4CCCCC4)c(-c4ccoc4)n(CC(=O)N4CCOCC4)c3c2)cc1` [Example 4051] is 200 to 1000 nM; for `CN(C)C(=O)Cn1c(-c2ccoc2)c(C2CCCCC2)c2ccc(C(=O)NCc3ccc4c(c3)OCO4)cc21` [Example 4052] it is 200 to 1000 nM.
In the case of `CN(C)C(=O)Cn1c(-c2ccoc2)c(C2CCCCC2)c2ccc(C(=O)NCc3ccccn3)cc21` [Example 4053] it was 200 to 1000 nM.
As for `CN(C)C(=O)Cn1c(-c2ccoc2)c(C2CCCCC2)c2ccc(C(=O)NCc3ccccc3)cc21` [Example 4054], the IC50 lay within 200 to 1000 nM.
`CN(C)C(=O)Cn1c(-c2ccoc2)c(C2CCCCC2)c2ccc(C(=O)NCCc3ccccc3)cc21` [Example 4055]: the IC50 was 200 to 1000 nM.
In the case of `CNC(=O)c1ccc2c(C3CCCCC3)c(-c3ccoc3)n(CC(=O)N(C)C)c2c1` [Example 4056] it was 200 to 1000 nM.
`CN(C)C(=O)Cn1c(-c2ccoc2)c(C2CCCCC2)c2ccc(C(=O)NCCc3ccncc3)cc21` [Example 4057]: the IC50 lay in the range of 200 to 1000 nM.
The figure for `C[C@@H](NC(=O)c1ccc2c(C3CCCCC3)c(-c3ccoc3)n(CC(=O)N(C)C)c2c1)c1ccccc1` [Example 4058] is < 200 nM; for `COc1ccc([C@@H](C)NC(=O)c2ccc3c(C4CCCCC4)c(-c4ccoc4)n(CC(=O)N(C)C)c3c2)cc1` [Example 4059] it is < 200 nM; for `CC(C)(NC(=O)c1ccc2c(C3CCCCC3)c(-c3ccoc3)n(CC(=O)N3CCC(N4CCCC4)CC3)c2c1)c1ccccc1` [Example 4060] it is 200 to 1000 nM.
The figure for `O=C(NCc1ccc(O)c(O)c1)c1ccc2c(C3CCCCC3)c(-c3ccoc3)n(CC(=O)N3CCOCC3)c2c1` [Example 4062] is < 200 nM.
Compound `COc1ccc([C@@H](C)NC(=O)c2ccc3c(C4CCCCC4)c(-c4ccoc4)n(CC(=O)N4CCOCC4)c3c2)cc1OC` [Example 4063] had a half-maximal inhibitory concentration (IC50) of 200 to 1000 nM.
